# PubChem BioAssay (NCI)
#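 The concentration for 50% growth inhibition is given as GI50. At the TGI there is no net growth.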
# Assays:
# Assay in all cases: DTP human tumour cell line panel, 384-well format
# A498 renal = tested on: A498 renal
# A549 NSCLC = tested on: A549 NSCLC
# ACHN renal = tested on: ACHN renal
# BT-549 breast = tested on: BT-549 breast
# CAKI-1 renal = tested on: CAKI-1 renal
# CCRF-CEM leukemia = tested on: CCRF-CEM leukemia
# COLO 205 colon = tested on: COLO 205 colon
# DU-145 prostate = tested on: DU-145 prostate
# EKVX NSCLC = tested on: EKVX NSCLC
# HCC-2998 colon = tested on: HCC-2998 colon
# HOP-62 NSCLC = tested on: HOP-62 NSCLC
# HOP-92 NSCLC = tested on: HOP-92 NSCLC
# HS 578T breast = tested on: HS 578T breast
# HT29 colon = tested on: HT29 colon
# K-562 leukemia = tested on: K-562 leukemia
# KM12 colon = tested on: KM12 colon
# LOX IMVI melanoma = tested on: LOX IMVI melanoma
# MDA-MB-231 breast = tested on: MDA-MB-231 breast
# MDA-MB-435 melanoma = tested on: MDA-MB-435 melanoma
# MDA-MB-468 breast = tested on: MDA-MB-468 breast
# NCI-H226 lung = tested on: NCI-H226 lung
# NCI-H23 lung = tested on: NCI-H23 lung
# NCI-H322M lung = tested on: NCI-H322M lung
# NCI-H460 NSCLC = tested on: NCI-H460 NSCLC
# NCI/ADR-RES ovarian = tested on: NCI/ADR-RES ovarian
# OVCAR-3 ovarian = tested on: OVCAR-3 ovarian
# OVCAR-4 ovarian = tested on: OVCAR-4 ovarian
# OVCAR-5 ovarian = tested on: OVCAR-5 ovarian
# OVCAR-8 ovarian = tested on: OVCAR-8 ovarian
# PC-3 prostate = tested on: PC-3 prostate
# RPMI-8226 leukemia = tested on: RPMI-8226 leukemia
# RXF 393 renal = tested on: RXF 393 renal
# SF-268 CNS = tested on: SF-268 CNS
# SF-295 CNS = tested on: SF-295 CNS
# SF-539 CNS = tested on: SF-539 CNS
# SK-MEL-2 melanoma = tested on: SK-MEL-2 melanoma
# SK-MEL-28 melanoma = tested on: SK-MEL-28 melanoma
# SK-MEL-5 melanoma = tested on: SK-MEL-5 melanoma
# SK-OV-3 ovarian = tested on: SK-OV-3 ovarian
# SN12C renal = tested on: SN12C renal
# SW-620 colon = tested on: SW-620 colon
# T-47D breast = tested on: T-47D breast
# TK-10 renal = tested on: TK-10 renal
# U251 glioblastoma = tested on: U251 glioblastoma
# UACC-257 melanoma = tested on: UACC-257 melanoma
# UACC-62 melanoma = tested on: UACC-62 melanoma
# UO-31 renal = tested on: UO-31 renal
smiles,measurement,setting,value
C[C@H](NC(=O)CCC(F)(F)F)C(=O)N[C@@H]1C(=O)N(CCO)c2ncccc2-c2ccccc21,GI50,A498 renal,> 100 µM
same,TGI,A498 renal,> 100 µM
same,GI50,A549 NSCLC,> 100 µM
same,TGI,A549 NSCLC,> 100 µM
same,GI50,ACHN renal,> 100 µM
same,TGI,ACHN renal,> 100 µM
same,GI50,BT-549 breast,> 100 µM
same,TGI,BT-549 breast,> 100 µM
same,GI50,CAKI-1 renal,> 100 µM
same,TGI,CAKI-1 renal,> 100 µM
same,GI50,CCRF-CEM leukemia,22.9 µM
same,TGI,CCRF-CEM leukemia,> 56.2 µM
same,GI50,COLO 205 colon,> 100 µM
same,TGI,COLO 205 colon,> 100 µM
same,GI50,DU-145 prostate,> 100 µM
same,TGI,DU-145 prostate,> 100 µM
same,GI50,EKVX NSCLC,> 100 µM
same,TGI,EKVX NSCLC,> 100 µM
same,GI50,HCC-2998 colon,> 100 µM
same,TGI,HCC-2998 colon,> 100 µM
same,GI50,HOP-62 NSCLC,> 100 µM
same,TGI,HOP-62 NSCLC,> 100 µM
same,GI50,HOP-92 NSCLC,> 100 µM
same,TGI,HOP-92 NSCLC,> 100 µM
same,GI50,HS 578T breast,> 100 µM
same,TGI,HS 578T breast,> 100 µM
same,GI50,HT29 colon,> 100 µM
same,TGI,HT29 colon,> 100 µM
same,GI50,K-562 leukemia,41.6 µM
same,TGI,K-562 leukemia,> 91.3 µM
same,GI50,KM12 colon,> 100 µM
same,TGI,KM12 colon,> 100 µM
same,GI50,LOX IMVI melanoma,43.3 µM
same,TGI,LOX IMVI melanoma,> 100 µM
same,GI50,MDA-MB-231 breast,> 100 µM
same,TGI,MDA-MB-231 breast,> 100 µM
same,GI50,MDA-MB-435 melanoma,> 100 µM
same,TGI,MDA-MB-435 melanoma,> 100 µM
same,GI50,MDA-MB-468 breast,> 100 µM
same,TGI,MDA-MB-468 breast,> 100 µM
same,GI50,NCI-H226 lung,> 100 µM
same,TGI,NCI-H226 lung,> 100 µM
same,GI50,NCI-H23 lung,> 100 µM
same,TGI,NCI-H23 lung,> 100 µM
same,GI50,NCI-H322M lung,> 100 µM
same,TGI,NCI-H322M lung,> 100 µM
same,GI50,NCI-H460 NSCLC,> 100 µM
same,TGI,NCI-H460 NSCLC,> 100 µM
same,GI50,NCI/ADR-RES ovarian,> 100 µM
same,TGI,NCI/ADR-RES ovarian,> 100 µM
same,GI50,OVCAR-3 ovarian,> 100 µM
same,TGI,OVCAR-3 ovarian,> 100 µM
same,GI50,OVCAR-4 ovarian,> 100 µM
same,TGI,OVCAR-4 ovarian,> 100 µM
same,GI50,OVCAR-5 ovarian,> 100 µM
same,TGI,OVCAR-5 ovarian,> 100 µM
same,GI50,OVCAR-8 ovarian,> 100 µM
same,TGI,OVCAR-8 ovarian,> 100 µM
same,GI50,PC-3 prostate,> 100 µM
same,TGI,PC-3 prostate,> 100 µM
same,GI50,RPMI-8226 leukemia,49.8 µM
same,TGI,RPMI-8226 leukemia,> 100 µM
same,GI50,RXF 393 renal,> 100 µM
same,TGI,RXF 393 renal,> 100 µM
same,GI50,SF-268 CNS,> 100 µM
same,TGI,SF-268 CNS,> 100 µM
same,GI50,SF-295 CNS,> 100 µM
same,TGI,SF-295 CNS,> 100 µM
same,GI50,SF-539 CNS,> 100 µM
same,TGI,SF-539 CNS,> 100 µM
same,GI50,SK-MEL-2 melanoma,> 100 µM
same,TGI,SK-MEL-2 melanoma,> 100 µM
same,GI50,SK-MEL-28 melanoma,> 100 µM
same,TGI,SK-MEL-28 melanoma,> 100 µM
same,GI50,SK-MEL-5 melanoma,> 100 µM
same,TGI,SK-MEL-5 melanoma,> 100 µM
same,GI50,SK-OV-3 ovarian,> 100 µM
same,TGI,SK-OV-3 ovarian,> 100 µM
same,GI50,SN12C renal,> 100 µM
same,TGI,SN12C renal,> 100 µM
same,GI50,SW-620 colon,87.1 µM
same,TGI,SW-620 colon,> 100 µM
same,GI50,T-47D breast,> 100 µM
same,TGI,T-47D breast,> 100 µM
same,GI50,TK-10 renal,> 100 µM
same,TGI,TK-10 renal,> 100 µM
same,GI50,U251 glioblastoma,> 100 µM
same,TGI,U251 glioblastoma,> 100 µM
same,GI50,UACC-257 melanoma,> 100 µM
same,TGI,UACC-257 melanoma,> 100 µM
same,GI50,UACC-62 melanoma,> 100 µM
same,TGI,UACC-62 melanoma,> 100 µM
same,GI50,UO-31 renal,> 100 µM
same,TGI,UO-31 renal,> 100 µM
